Where “and” joins values, the source holds several entries; their conditions need not be identical. Identical values can stand only once. Inconclusive results and toxic doses are left out. Rule as the data show it: active = T/C of 150% or more; inactive = T/C below 125%.
Test system: L1210 leukemia ip in BDF1 mice, survival T/C
Test: NCI In Vivo Anticancer Drug Screen. Data for tumor model L1210 Leukemia (intraperitoneal) in B6D2F1 (BDF1) mice
Conditions: endpoint: mean survival time, higher = longer survival
How it was run: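 Value reflects the ratio of survival in compound-treated mice to survival in vehicle-treated controls, with both groups carrying the same transplanted tumor.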

[1] = dose: 100.0 mg/kg/injection, schedule: Q04DX002 (ip), vehicle: Klucel (hydroxypropylcellulose) (HPC)
[2] = dose: 200.0 mg/kg/injection, schedule: Q04DX002 (ip), vehicle: Klucel (hydroxypropylcellulose) (HPC)
[3] = dose: 400.0 mg/kg/injection, schedule: Q04DX002 (ip), vehicle: Klucel (hydroxypropylcellulose) (HPC)
[4] = dose: 100.0 mg/kg/injection, schedule: Q01DX009 (ip), vehicle: saline
[5] = dose: 100.0 mg/kg/injection, schedule: Q04DX003 (ip), vehicle: Klucel (hydroxypropylcellulose) (HPC)
[6] = dose: 200.0 mg/kg/injection, schedule: Q01DX001 (ip), vehicle: saline
[7] = dose: 400.0 mg/kg/injection, schedule: Q01DX001 (ip), vehicle: saline
[8] = dose: 50.0 mg/kg/injection, schedule: Q04DX002 (ip), vehicle: Klucel (hydroxypropylcellulose) (HPC)
[9] = dose: 100.0 mg/kg/injection, schedule: Q01DX001 (ip), vehicle: carboxymethylcellulose (CMC)
[10] = dose: 200.0 mg/kg/injection, schedule: Q01DX001 (ip), vehicle: carboxymethylcellulose (CMC)
[11] = dose: 400.0 mg/kg/injection, schedule: Q01DX001 (ip), vehicle: carboxymethylcellulose (CMC)
[12] = dose: 100.0 mg/kg/injection, schedule: Q01DX009 (ip), vehicle: Klucel (hydroxypropylcellulose) (HPC)
[13] = dose: 200.0 mg/kg/injection, schedule: Q01DX009 (ip), vehicle: Klucel (hydroxypropylcellulose) (HPC)
[14] = dose: 200.0 mg/kg/injection, schedule: Q04DX003 (ip), vehicle: Klucel (hydroxypropylcellulose) (HPC)
[15] = dose: 400.0 mg/kg/injection, schedule: Q01DX009 (ip), vehicle: Klucel (hydroxypropylcellulose) (HPC)
[16] = dose: 400.0 mg/kg/injection, schedule: Q04DX003 (ip), vehicle: Klucel (hydroxypropylcellulose) (HPC)
[17] = dose: 100.0 mg/kg/injection, schedule: Q01DX009 (ip), vehicle: saline with Tween-80
[18] = dose: 200.0 mg/kg/injection, schedule: Q01DX009 (ip), vehicle: saline with Tween-80

Measured: T/C

CCOC(=O)Nc1cc(NCC(O)CN(C)c2ccc(Cl)cc2)c([N+](=O)[O-])c(N)n1 (stereo unspecified)
inactive: dose: 100.0 mg/kg/injection, schedule: Q01DX001 (ip), vehicle: saline with Tween-80 92 % of control | dose: 200.0 mg/kg/injection, schedule: Q01DX001 (ip), vehicle: saline with Tween-80 86 % of control | dose: 400.0 mg/kg/injection, schedule: Q01DX001 (ip), vehicle: saline with Tween-80 89 % of control

O=c1[nH]cnc2c1ncn2CCCOc1ccccc1
inactive: [1] 91 % of control | [2] 88 % of control | [3] 88 % of control

CCCCCCCC(=O)[O][Pb]([CH2]C)([CH2]C)[CH2]C
inactive: dose: 12.5 mg/kg/injection, schedule: Q04DX002 (ip), vehicle: DMSO 114 % of control

NC(N)=Nc1ccc(C(=O)Oc2ccc([N+](=O)[O-])cc2Cl)cc1
inactive: dose: 25.0 mg/kg/injection, schedule: Q01DX009 (ip), vehicle: saline 94 % of control | dose: 50.0 mg/kg/injection, schedule: Q01DX009 (ip), vehicle: saline 97 % of control | [4] 87 % of control | dose: 100.0 mg/kg/injection, schedule: Q04DX003 (ip), vehicle: saline 96 % of control | dose: 200.0 mg/kg/injection, schedule: Q04DX003 (ip), vehicle: saline 94 % of control

CCOC(=O)/C(C#N)=C\c1cccs1
inactive: [5] 103 % of control

N#CC(C#N)=CN1CCCCCC1
inactive: dose: 6.25 mg/kg/injection, schedule: Q01DX009 (ip), vehicle: saline with Tween-80 93 % of control | dose: 6.25 mg/kg/injection, schedule: Q04DX003 (ip), vehicle: saline with Tween-80 96 % of control | dose: 12.5 mg/kg/injection, schedule: Q01DX009 (ip), vehicle: saline with Tween-80 94 % of control | dose: 12.5 mg/kg/injection, schedule: Q04DX003 (ip), vehicle: saline with Tween-80 92 % of control | dose: 25.0 mg/kg/injection, schedule: Q01DX009 (ip), vehicle: saline with Tween-80 89 % of control | dose: 25.0 mg/kg/injection, schedule: Q04DX003 (ip), vehicle: saline with Tween-80 94 % of control

C/C(=N/NC(N)=S)c1ccco1
inactive: [6] 119 % of control | [7] 102 % of control

O=C1c2ccccc2C(=O)C2OC12 (stereo unspecified)
inactive: dose: 3.0 mg/kg/injection, schedule: Q01DX009 (ip), vehicle: Klucel (hydroxypropylcellulose) (HPC) 97 % of control | dose: 6.0 mg/kg/injection, schedule: Q01DX009 (ip), vehicle: Klucel (hydroxypropylcellulose) (HPC) 93 % of control | dose: 12.0 mg/kg/injection, schedule: Q01DX009 (ip), vehicle: Klucel (hydroxypropylcellulose) (HPC) 97 % of control | dose: 12.5 mg/kg/injection, schedule: Q04DX002 (ip), vehicle: Klucel (hydroxypropylcellulose) (HPC) 102 % of control | dose: 25.0 mg/kg/injection, schedule: Q04DX002 (ip), vehicle: Klucel (hydroxypropylcellulose) (HPC) 94 % of control | dose: 50.0 mg/kg/injection, schedule: Q01DX001 (ip), vehicle: carboxymethylcellulose (CMC) 98 % of control | [8] 97 % of control | [9] 109 % of control | [10] 98 % of control | [11] 104 % of control

COc1ccc(NC(=O)C(Cl)Cl)cc1NC(C)=O
inactive: [9] 96 % of control | [10] 108 % of control | [11] 91 % of control

O=C(O)c1cc(O)c(O)cc1O
inactive: [9] 98 % of control | [10] 108 % of control | [11] 92 % of control

[N-]=[N+]=CC(=O)CCC(=O)C=[N+]=[N-]
inactive: dose: 0.75 mg/kg/injection, schedule: Q01DX009 (ip), vehicle: other 98 % of control | dose: 1.5 mg/kg/injection, schedule: Q01DX009 (ip), vehicle: other 116 % of control | dose: 6.0 mg/kg/injection, schedule: Q01DX009 (ip), vehicle: other 116 % of control

COc1cccc(OC)c1C(c1c(OC)cccc1OC)c1c(OC)cccc1OC
inactive: dose: 100.0 mg/kg/injection, schedule: Q04DX003 (ip), vehicle: saline with Tween-80 95 % of control | dose: 200.0 mg/kg/injection, schedule: Q04DX003 (ip), vehicle: saline with Tween-80 91 % of control | dose: 400.0 mg/kg/injection, schedule: Q04DX003 (ip), vehicle: saline with Tween-80 101 % of control

COc1ccccc1/C=c1\[nH]c(=O)/c(=C/c2ccccc2OC)[nH]c1=O
inactive: [12] 88 % of control | [5] 101 % of control | [13] 86 % of control | [14] 101 % of control | [15] 86 % of control | [16] 98 % of control

Ic1c2ccccc2cc2ccccc12
inactive: [8] 95 % of control and 123 % of control | [1] 103 % of control and 86 % of control | [2] 108 % of control and 92 % of control | [3] 92 % of control

Oc1ccccc1-n1c(-c2ccccc2)ccc1-c1ccccc1
inactive: dose: 50.0 mg/kg/injection, schedule: Q01DX001 (ip), vehicle: saline 90 % of control | dose: 100.0 mg/kg/injection, schedule: Q01DX001 (ip), vehicle: saline 98 % of control | [6] 102 % of control | [7] 98 % of control

O=c1c2ccccc2c(-c2ccccc2)nn1Cc1ccccc1
inactive: [17] 93 % of control | [18] 102 % of control | dose: 400.0 mg/kg/injection, schedule: Q01DX009 (ip), vehicle: saline with Tween-80 104 % of control

CS(=O)(=O)OCCBr
inactive: dose: 12.5 mg/kg/injection, schedule: Q04DX003 (ip), vehicle: saline 88 % of control | dose: 25.0 mg/kg/injection, schedule: Q04DX003 (ip), vehicle: saline 90 % of control | dose: 50.0 mg/kg/injection, schedule: Q04DX003 (ip), vehicle: saline 87 % of control | [9] 103 % of control

C[n+]1cccc(C=O)c1
inactive: [4] 100 % of control | dose: 200.0 mg/kg/injection, schedule: Q01DX009 (ip), vehicle: saline 101 % of control | dose: 400.0 mg/kg/injection, schedule: Q01DX009 (ip), vehicle: saline 100 % of control

CNC(=O)Oc1ccc(C=Nc2cccc([N+](=O)[O-])c2)cc1
inactive: [12] 101 % of control | [13] 95 % of control | [15] 100 % of control

CC(C)(C)C1=NN=C(C(C)(C)C)CSC1
inactive: [12] 95 % of control and 100 % of control | [1] 98 % of control and 103 % of control | [5] 101 % of control | [13] 101 % of control and 113 % of control | [2] 103 % of control and 105 % of control | [14] 97 % of control | [15] 101 % of control and 92 % of control | [3] 98 % of control and 105 % of control | [16] 95 % of control

CN(C)C(=O)N/N=C/c1ccc(Cl)cc1
inactive: [17] 95 % of control | [18] 92 % of control

Nc1nc(SCCc2ccccc2)c2[nH]cnc2n1
inactive: dose: 125.0 mg/kg/injection, schedule: Q01DX Z (ip), vehicle: carboxymethylcellulose (CMC) 97 % of control | dose: 200.0 mg/kg/injection, schedule: Q01DX Z (ip), vehicle: carboxymethylcellulose (CMC) 123 % of control | dose: 250.0 mg/kg/injection, schedule: Q01DX Z (ip), vehicle: carboxymethylcellulose (CMC) 100 % of control | dose: 500.0 mg/kg/injection, schedule: Q01DX Z (ip), vehicle: carboxymethylcellulose (CMC) 106 % of control | dose: 1000.0 mg/kg/injection, schedule: Q01DX Z (ip), vehicle: carboxymethylcellulose (CMC) 93 % of control

Reference: PubChem BioAssay AID248 (DTP/NCI, 2004)
